{"source": "patent US6503935B1", "about": "“Imidazoles and related compounds as α1A agonists” (Abbott Laboratories, priority 1998, dated 2003)", "key": {"[1]": {"biological_target": "T1, α1d (rat receptor expressed in mouse fibroblasts) (Rattus norvegicus, UniProt P23944)", "T1 construct": "expressed in transfected cells; host or cells: mouse fibroblasts", "T1 sequence (P23944 1-561)": "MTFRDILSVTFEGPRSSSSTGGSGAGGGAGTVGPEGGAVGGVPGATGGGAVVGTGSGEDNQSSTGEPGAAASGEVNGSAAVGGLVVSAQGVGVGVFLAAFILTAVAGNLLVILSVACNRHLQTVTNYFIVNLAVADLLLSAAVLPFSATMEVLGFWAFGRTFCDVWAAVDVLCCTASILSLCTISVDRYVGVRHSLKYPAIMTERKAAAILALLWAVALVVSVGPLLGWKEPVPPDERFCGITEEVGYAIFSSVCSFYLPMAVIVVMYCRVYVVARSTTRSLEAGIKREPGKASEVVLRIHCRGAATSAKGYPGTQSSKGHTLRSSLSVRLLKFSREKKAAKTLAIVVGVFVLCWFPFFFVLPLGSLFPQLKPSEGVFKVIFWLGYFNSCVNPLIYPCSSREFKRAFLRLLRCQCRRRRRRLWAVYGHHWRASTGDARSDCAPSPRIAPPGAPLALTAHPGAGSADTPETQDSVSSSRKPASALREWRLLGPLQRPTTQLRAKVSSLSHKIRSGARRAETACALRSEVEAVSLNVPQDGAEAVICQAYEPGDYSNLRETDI", "assay": "Radioligand binding with [3H]-prazosin, α1d", "settings": "rat receptor expressed in mouse fibroblasts, [3H]-prazosin", "outline": "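Radioligand binding with [3H]-prazosin: α1A from rat submaxillary gland; α1b hamster receptor and α1d rat receptor, each expressed in mouse fibroblasts.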"}, "α1A (rabbit urethra)": {"biological_target": "T2, α1A (rabbit urethra) (Oryctolagus cuniculus, UniProt O02824)", "T2 construct": "tested for α1A functional activity using rabbit urethra; from tissue; host or cells: rabbit urethra", "T2 sequence (O02824 1-466)": "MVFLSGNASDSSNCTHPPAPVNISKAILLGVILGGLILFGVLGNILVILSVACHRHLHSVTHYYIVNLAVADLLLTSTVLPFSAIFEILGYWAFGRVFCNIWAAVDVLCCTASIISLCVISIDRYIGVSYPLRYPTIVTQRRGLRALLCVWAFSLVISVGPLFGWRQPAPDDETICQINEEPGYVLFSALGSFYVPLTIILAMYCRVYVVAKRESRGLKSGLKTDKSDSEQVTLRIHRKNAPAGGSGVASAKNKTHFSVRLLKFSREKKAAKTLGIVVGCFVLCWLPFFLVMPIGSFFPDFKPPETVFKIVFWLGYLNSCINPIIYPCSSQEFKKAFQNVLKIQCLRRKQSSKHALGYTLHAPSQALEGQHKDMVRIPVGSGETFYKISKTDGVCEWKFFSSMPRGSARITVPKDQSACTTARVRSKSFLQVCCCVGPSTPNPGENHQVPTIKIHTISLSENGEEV", "assay": "Agonist contraction of smooth muscle tissue, rabbit urethra", "format": "cell-based", "settings": "rabbit urethra; read-out: Agonist Tissue Response (pD2) α1A (rab ureth) (converted)", "experimental": "Most of the compounds were tested for α1A functional activity using rabbit urethra as follows. Female New Zealand white rabbits (2.0-3.5 Kg) were sedated with CO2 and decapitated. […] Subsequent experimental conditions were as described above for the other tissues. Agonist concentration response curves were cumulative except for the vas deferens assay in which the transient response made such measurements impractical."}, "Anesthetized Dogs": {"system": "Anesthetized Dogs", "assay": "Intraurethral pressure (IUP) in anesthetized dogs", "format": "in vivo, dog", "settings": "for Mean Selectivity Ratio MAP ED20/IUP ED5 / Mean IUP ED5 / ED (5 mmHg IUP increase): anesthetized female dogs; for Mean Selectivity Ratio MAP ED20/IUP ED5 / ED (5 mmHg IUP increase): iv; for Mean IUP ED5 / ED (5 mmHg IUP increase): iv dose causing a maximum increase in IUP of 5 mm Hg; for Mean IUP ED5: maleate; for ED (5 mmHg IUP increase): Canis lupus familiaris, read-out: Mean IUP ED5", "from_the_text": "In vivo Functional Assays-Assessment of Intrurethral Pressure (IUP) and Mean Arterial Pressure (MAP) in Anesthetized Dogs\nFemale dogs (Marshall Farms, North Rose, N.Y.) greater that 2 years of age and weighing between 12 and 15 kg were used in these studies. At least 2 weeks prior to any agonist dosing, dogs were instrumented for the chronic measurement of arterial blood pressure by implanting a telemetry transducer/transmitter (TA11PA-C40, Data Sciences International, St. Paul, Minn.) into a carotid artery.\nOn the test day, dogs fasted since the previous afternoon were pre-anesthetized with thiopental sodium 15 mg/kg i.v. (Pentothal™, Abbott) and intubated. Anesthesia was maintained by allowing the dog to spontaneously breathe a mixture of isoflurane (2.5 to 3 volume %) and oxygen delivered by a Narkomed Standard anesthesia system (North American Drager, Telford, Pa.). An Abbocath-T™ i.v. catheter (18-G, Abbott) was inserted into the cephalic vein for the administration of agonists. A telemetry receiver (RA1310, DataSciences) was placed under the head of each dog and was interfaced to a computerized data acquisition system (Modular Instruments Inc.(MI2), Malvern, Pa.) which allowed for the continuous calibrated recording of arterial blood pressure which was electronically filtered to determine its mean value (MAP).\nDogs with chronic telemetry implants anesthetized as described above were placed in dorsal recumbency and a balloon catheter was inserted into the urethral orifice and advanced approximately 15 cm until the tip was well inside the bladder. The balloon was then inflated with 1 ml of room air and the catheter slowly withdrawn until resistance (corresponding to the bladder neck) was evident. The balloon was then deflated and the catheter withdrawn an additional 2 cm. The balloon was then reinflated and its catheter port connected to a Gould Statham P23Dd pressure transducer interfaced to a computerized data acquisition system (Modular Instruments, Inc., Malvern, Pa.) for the measurement of intraurethral pressure. Increasing iv doses of test agonists were administered and the maximum effect of each dose on IUP was recorded. The effect of each dose was allowed to return to baseline before the next dose was given.\nFrom the resulting dose response curve, an ED5 value, for the dose causing a maximum increase in IUP of 5 mm Hg, could be estimated. An ED20 value for the dose causing a maximum increase in MAP of 20 mm Hg could also be estimated. A selectivity ratio of MAP ED20 vs. IUP ED5 was calculated."}, "[2]": {"settings": "read-out: Radioligand Binding Ki α1d (Rat)"}, "[3]": {"settings": "Radioligand Binding Ki α1d (Rat)"}}, "note": "Structures can show the parent of a compound that is named as a salt. Where two headings read alike, the source gives them in different places.", "data": [{"compound": "CCS(=O)(=O)Nc1cccc2c1CCCC2c1c[nH]cn1.O=C(O)/C=C\\C(=O)O", "note": "(single isomer, unassigned; (+)) [Example 33, (+)-N-[5-(1H-imidazol-4-yl)-5,6,7,8-tetrahydro-1-naphthalenyl]ethanesulfonamide, maleate]", "values": [{"measurement": "Ki", "setting": "[1]; [2]", "result": 1080, "unit": "nM"}, {"measurement": "EC50", "setting": "α1A (rabbit urethra)", "result": 170, "unit": "nM"}, {"measurement": "Mean Selectivity Ratio MAP ED20/IUP ED5", "setting": "Anesthetized Dogs", "result": 3.3}, {"measurement": "Mean IUP ED5", "setting": "Anesthetized Dogs", "result": 10.5, "unit": "nmol/kg"}]}, {"compound": "CCS(=O)(=O)Nc1cccc2c1CCCC2c1c[nH]cn1.O=C(O)/C=C\\C(=O)O", "note": "(single isomer, unassigned; (-)) [Example 34, (−)-N-[5-(1H-imidazol-4-yl)-5,6,7,8-tetrahydro-1-naphthalenyl]ethanesulfonamide, maleate]", "values": [{"measurement": "Ki", "setting": "[1]; [2]", "result": 842, "unit": "nM"}, {"measurement": "EC50", "setting": "α1A (rabbit urethra)", "result": 28200, "unit": "nM"}, {"measurement": "Mean IUP ED5", "setting": "Anesthetized Dogs", "result": ">1000", "unit": "nmol/kg"}]}, {"compound": "CCS(=O)(=O)Nc1cccc2c1CCCC2c1c[nH]cn1.O=C(O)/C=C\\C(=O)O", "note": "(stereo not shown) [Example 12, N-[5-(1H-imidazol-4-yl)-5,6,7,8-tetrahydro-1-naphthalenyl]ethanesulfonamide, maleate]", "values": [{"measurement": "Ki", "setting": "[1]; [2]", "result": 1670, "unit": "nM"}, {"measurement": "EC50", "setting": "α1A (rabbit urethra)", "result": 631, "unit": "nM"}, {"measurement": "ED (5 mmHg IUP increase)", "setting": "Anesthetized Dogs", "result": 0.0107, "unit": "µmol/kg"}, {"measurement": "Mean Selectivity Ratio MAP ED20/IUP ED5", "setting": "Anesthetized Dogs", "result": 7.6}]}, {"compound": "CN(c1cccc2c1CCCC2c1c[nH]cn1)S(C)(=O)=O", "note": "(stereo not shown) [Example 15, N-[5,6,7,8-tetrahydro-5-(1H-imidazol-4-yl)-1-naphthalenyl]-N-methylmethanesulfonmamide, maleate]", "values": [{"measurement": "Ki", "setting": "[1]; [2]", "result": 701, "unit": "nM"}, {"measurement": "EC50", "setting": "α1A (rabbit urethra)", "result": 692, "unit": "nM"}, {"measurement": "Mean Selectivity Ratio MAP ED20/IUP ED5", "setting": "Anesthetized Dogs", "result": 2.5}]}, {"compound": "O=C(Nc1cccc2c1CCCC2c1c[nH]cn1)C(F)(F)F", "note": "(stereo not shown) [Example 17, 2,2,2-trifluoro-N-[5-(1H-imidazol-4-yl)-5,6,7,8-tetahydro-1-naphthalenyl]acetamide, maleate]", "values": [{"measurement": "Ki", "setting": "[1]; [2]", "result": 3300, "unit": "nM"}, {"measurement": "EC50", "setting": "α1A (rabbit urethra)", "result": 525, "unit": "nM"}, {"measurement": "Mean Selectivity Ratio MAP ED20/IUP ED5", "setting": "Anesthetized Dogs", "result": 1.1}]}, {"compound": "CS(=O)(=O)Nc1cccc(Cc2c[nH]cn2)c1.O=C(O)/C=C\\C(=O)O", "note": "[Example 21, N-[3-(1H-imidazol-4-ylmethyl)phenyl]methanesulfonamide, maleate]", "values": [{"measurement": "Ki", "setting": "[1]; [3]", "result": 212, "unit": "nM"}, {"measurement": "EC50", "setting": "α1A (rabbit urethra)", "result": 1860, "unit": "nM"}]}, {"compound": "COc1ccc(NS(C)(=O)=O)c2c1C(c1c[nH]cn1)CCC2", "note": "(stereo not shown) [Example 26, N-[5,6,7,8-tetrahydro-(1H-imidazol-4-yl)-4-methoxyy-1-naphthalenyl]methanesulfonamide, maleate]", "values": [{"measurement": "EC50", "setting": "α1A (rabbit urethra)", "result": 15500, "unit": "nM"}, {"measurement": "Mean Selectivity Ratio MAP ED20/IUP ED5", "setting": "Anesthetized Dogs", "result": 2.6}]}, {"compound": "Cc1c(Cc2c[nH]cn2)cccc1NS(C)(=O)=O.O=C(O)/C=C\\C(=O)O", "note": "[Example 28, N-[3-(1H-imidazol-4-ylmethyl)-2-methylphenyl]methanesulfonamide, maleate]", "values": [{"measurement": "Ki", "setting": "[1]; [3]", "result": 815, "unit": "nM"}, {"measurement": "EC50", "setting": "α1A (rabbit urethra)", "result": 5620, "unit": "nM"}, {"measurement": "Mean Selectivity Ratio MAP ED20/IUP ED5", "setting": "Anesthetized Dogs", "result": 2.1}]}, {"compound": "CCS(=O)(=O)Nc1cccc(Cc2c[nH]cn2)c1C.O=C(O)/C=C\\C(=O)O", "note": "[Example 29, N-[3-(1H-imidazol-4-ylmethyl)-2-methylphenyl]ethanesulfonamide, maleate]", "values": [{"measurement": "Ki", "setting": "[1]; [3]", "result": 678, "unit": "nM"}, {"measurement": "Mean Selectivity Ratio MAP ED20/IUP ED5", "setting": "Anesthetized Dogs", "result": 5.6}, {"measurement": "selectivity for increasing intraurethral pressure over arterial pressure as compared to N-(3-(1H-imidazol-4-ylmethyl)-2-methylphenyl]methanesulfonamide)", "setting": "Anesthetized Dogs; in vivo, dogs", "result": "> 3", "unit": "times"}]}, {"compound": "CC(c1cccc(NS(C)(=O)=O)c1)c1c[nH]cn1.O=C(O)/C=C\\C(=O)O", "note": "(stereo not shown) [Example 31, N-[3-[1-(1H-imidazol-4-yl)ethyl]phenyl]methanesulfonamide, maleate]", "values": [{"measurement": "Ki", "setting": "[1]; [3]", "result": 685, "unit": "nM"}, {"measurement": "EC50", "setting": "α1A (rabbit urethra)", "result": 4170, "unit": "nM"}, {"measurement": "Mean Selectivity Ratio MAP ED20/IUP ED5", "setting": "Anesthetized Dogs", "result": 3.4}]}, {"compound": "CS(=O)(=O)Nc1ccc(F)c2c1CCCC2c1c[nH]cn1.O=C(O)/C=C\\C(=O)O", "note": "(stereo not shown) [Example 44, N-[4-fluoro-5-(1H-imidazol-4-yl)-5,6,7,8-tetrahydro-1-naphthalenyl]methanesulfonamide, maleate]", "values": [{"measurement": "Ki", "setting": "[1]; [2]", "result": 3050, "unit": "nM"}, {"measurement": "EC50", "setting": "α1A (rabbit urethra)", "result": 4900, "unit": "nM"}, {"measurement": "ED (5 mmHg IUP increase)", "setting": "Anesthetized Dogs", "result": 0.844, "unit": "µmol/kg"}, {"measurement": "Mean Selectivity Ratio MAP ED20/IUP ED5", "setting": "Anesthetized Dogs", "result": 1.0}]}, {"compound": "C=C(c1cccc(NS(=O)(=O)CC)c1)c1c[nH]cn1", "note": "[Example 45, N-{3-[1-(1H-imidazol-4-yl)vinyl]phenyly}ethanesulfonamide, maleate]", "values": [{"measurement": "Ki", "setting": "[1]; [3]", "result": 971, "unit": "nM"}, {"measurement": "EC50", "setting": "α1A (rabbit urethra)", "result": 2000, "unit": "nM"}, {"measurement": "Mean Selectivity Ratio MAP ED20/IUP ED5", "setting": "Anesthetized Dogs", "result": 2.6}]}]}
